Consider nine compounds from patent EP4781986A1, “PHARMACEUTICAL COMPOSITION HAVING IMPROVED PHARMACOKINETIC PROPERTIES” (Sichuan Purity Pharmaceutical Co., Ltd., priority 2023, dated 2025).

The target in one data set is T1, CGRP receptor complex (Homo sapiens, UniProt O60894+Q16602).
T1 construct: SK-N-MC (neuroepithelioma cells) from National Science and Technology Infrastructure; host or cells: SK-N-MC
Description: determination of cell functional antagonism - cAMP determination. As to conditions: inhibition of CGRP-stimulated cAMP formation in SK-N-MC cells. It is filed as cell-based. As to the method: A CGRP receptor complex was coupled with Gs in G protein, the combination of CGRP and CGRP receptor complex led to Gs activation, and cAMP (3',5'-cyclic adenosine monophosphate) was produced.
The ability of the compound of the present invention to inhibit CGRP-stimulated cAMP formation in SK-N-MC cells was determined.
SK-N-MC (neuroepithelioma cells) from National Science and Technology Infrastructure - Biomedical Materials and Cell Resources.
The SK-N-MC cells were resuscitated and cultured in advance, and a cell confluence degree should be 70%-80% before use.
4.2 A sample dilution, a tested compound and α-CGRP (human) were prepared.
The SK-N-MC cells were digested, centrifuged, then resuspended with the sample dilution, and inoculated into a 384-well plate. Each well was added with the α-CGRP (human) and the tested compound respectively, and blown and mixed evenly. The well plate was adhered with a sealing film, and placed on an enzyme-labeled incubator to incubate at 25°C.
4.4 cAMP determination: carried out according to LANCE Ultra cAMP Kit specification EucAMP tracer and ULight-anti-cAMP working solutions were prepared in the dark, respectively added into the well plate, and blown and mixed evenly. The well plate was adhered with a sealing film, and placed on an enzyme-labeled incubator to incubate at 25°C.
4.5 A luminescence value was read by a chemiluminescent module of an automatic enzyme-labeled instrument.
(Changes in cAMP serve as a functional read-out for many G protein-coupled receptors.)

For data set [1] the following is noted: oral administration with alkyl glucoside, according to CN202180077330.9; cited from earlier work.
Data set [2] in a line: PK properties in SD rats with different concentrations of alkyl glycoside (0.05% and 5% DDM). The class given is in vivo. As to conditions: intranasal, 5% DDM vs without DDM. The text has this:
During preparation of a test sample in the Test Example 7, drug solution groups with 0.05% and 5% dodecyl-β-D-maltosides (DDM) were established and prepared in parallel, so as to compare and observe changes of PK properties in rats administered with the drug solution groups with two different concentrations of dodecyl-β-D-maltosides (DDM).

A short description of data set [3]: stability test in liver microsomes (monkey). As to conditions: Monkey liver microsomes, 60 min. The class given is in vitro ADME. The procedure:
(§1) The stability of the compound of the present invention in liver microsomes of rat, monkey and human was determined. Tested compounds of the present invention were the compounds in Examples 6 and 8 , and a control drug was Zavegepant.
(§2) 3.2 An appropriate amount of liver microsome solution was transferred into a 1 mL 96-deep-well plate, added with a tested drug liquid (or a probe substrate solution), and pre-incubated in a thermal mixer at 37°C for 5 minutes. Two parts of mixed solutions were taken out from the system and added with 1×PBS to replace NADPH, and the mixed solutions were taken out at 0 and 60 minutes respectively, and added with methanol (containing an internal standard) to terminate the reaction. In the remaining mixed system, each well was added with NADPH to start the reaction. In the tested substance group, mixed solutions were taken out from the system at 0, 5, 15, 30, 45 and 60 minutes, and in the control group, mixed solutions were taken out from the system at 0, 30 and 60 minutes, and the mixed solutions were added methanol (containing an internal standard) to terminate the reaction. All samples of the terminated reaction were mixed evenly and centrifuged in a centrifuge at 3800 rpm for 15 minutes, and the supernatant was taken for LC-MS/MS analysis.
(§3) A peak area was determined by an extracted ion chromatogram. A slope value k was determined by linear regression of a remaining percentage of a parent drug relative to a natural logarithm of an incubation time curve. According to the slope, in-vitro half-life periods (t1/2) were respectively calculated, and in-vitro intrinsic clearance rates (CLint, represented by µL/min/mg protein) were calculated. Calculation formulas were as follows: t1/2 = ln2/k = 0.693/k; and CLint = 0.693/t1/2 /liver microsome protein concentration [formula]
A general note: Liver microsomes are vesicles of endoplasmic reticulum, rich in cytochrome P450 enzymes.

Data set [4] is described as follows: stability test in liver microsomes (human). The class given is in vitro ADME. As to conditions: Human liver microsomes, 60 min. The procedure: as §1, §2, §3
Data set [5] is described as follows: PK properties in SD rats with or without 0.2% alkyl glycoside (DDM). It is filed as in vivo. As to conditions: for Tmax: Sprague-Dawley, rat, in vivo, inhaled or intranasal. The source says: During preparation of a test sample in the Test Example 5, a drug solution group with 0.2% dodecyl-β-D-maltoside (DDM) was also established and prepared in parallel, so as to compare and observe changes of PK properties in rats administered with the drug solution group with 0.2% dodecyl-β-D-maltoside (DDM) and the drug solution group without dodecyl-β-D-maltoside (DDM).

The nature of data set [6]: stability test in liver microsomes (rat). It is filed as in vitro ADME. As to conditions: Rat liver microsomes, 60 min. The procedure:
as §1, §2, §3

Where two headings read alike, the source gives them in different places.

T1 sequence (Q16602 23-461): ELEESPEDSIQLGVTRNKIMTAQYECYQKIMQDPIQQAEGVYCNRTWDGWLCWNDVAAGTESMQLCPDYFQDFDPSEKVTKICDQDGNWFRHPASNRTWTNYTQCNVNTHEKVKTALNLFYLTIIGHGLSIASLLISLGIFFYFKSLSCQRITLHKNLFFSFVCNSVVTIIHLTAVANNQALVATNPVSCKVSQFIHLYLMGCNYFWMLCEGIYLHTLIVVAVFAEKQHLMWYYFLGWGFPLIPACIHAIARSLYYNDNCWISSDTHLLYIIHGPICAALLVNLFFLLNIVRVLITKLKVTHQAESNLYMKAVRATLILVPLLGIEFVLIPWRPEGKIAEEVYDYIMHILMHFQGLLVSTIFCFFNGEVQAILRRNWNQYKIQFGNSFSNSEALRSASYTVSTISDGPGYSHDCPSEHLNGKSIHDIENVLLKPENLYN
T1 sequence (O60894 27-148): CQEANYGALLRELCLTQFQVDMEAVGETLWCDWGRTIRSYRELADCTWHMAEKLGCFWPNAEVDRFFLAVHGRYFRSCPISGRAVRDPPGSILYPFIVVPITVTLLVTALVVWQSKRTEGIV

Usually IC50 stands for the concentration that gives 50% inhibition. `Cc1cc(C[C@@H](NC(=O)N2CCC(c3cc4c([nH]c3=O)C3CCC4C3)CC2)C(=O)N2CCN(C3CCN(C)CC3)CC2)cc2cn[nH]c12` (stereo partly drawn) [Example 45, N-((R)-3-(7-methyl-1H-indazole-5-yl)-1-(4-(1-methylpiperidine-4-yl)piperazine-1-yl)-1-oxopropan-2-yl)-4-(2-oxo-1,2,5,6,7,8-hexahydro-5,8-methanoquinoline-3-yl)piperidine-1-formamide]: the IC50 on CGRP receptor complex is 26 nM.

Consider `Cc1cc(C[C@@H](NC(=O)N2CCC(c3cc4ccccc4[nH]c3=O)CC2)C(=O)N2CCN(C3CCN(C)CC3)CC2)cc2cn[nH]c12` [Zavegepant, zavegepant, reference compound], for which the AUC result in data set [1] was “no obvious changes”. For the same compound, the Cmax result in data set [1] is “no obvious changes”. In addition, the Tmax result in data set [1] is “prolonged to some extent”; in data set [5] (0.2% DDM) it was 12.5 min; in data set [5] (not added with DDM (0%DDM)) it was 15 min. The “Tmax(DDM 5%)/ Tmax(DDM 0%)” value in data set [2] was 50%. In addition, the “% remaining (60 min)” value in data set [3] was 72.1%; in data set [4] it was 57.5%; in data set [6] it was 95.5%. Moreover, the “Tmax(DDM 0.2%)/ Tmax(DDM 0%)” value in data set [5] (intranasal, 0.2% dodecyl-β-D-maltoside (DDM) vs without DDM) was determined as 83.6%.

Regarding `Cc1cc(C[C@@H](NC(=O)N2CCC(c3cc4c([nH]c3=O)SCC4)CC2)C(=O)N2C3CCC2CC(N2CCCCC2)C3)cc2cn[nH]c12` (stereo partly drawn) [Example 34, N-((2R)-3-(7-methyl-1H-indazole-5-yl)-1-oxo-1-(3-(piperidine-1-yl)-8-azabicyclo[3.2.1]octane-8-yl)propan-2-yl)-4-(6-oxo-2,3,6,7-tetrahydrothieno[2,3-b]pyridine-5-yl)piperidine-1-formamide], the IC50 on CGRP receptor complex amounted to 0.2 nM.

As to `Cc1cc(C[C@@H](NC(=O)N2CCC(c3cc4c([nH]c3=O)CCCS4)CC2)C(=O)N2CCN(C3CCN(C)CC3)CC2)cc2cn[nH]c12` [Example 12, (R)-N-(3-(7-methyl-1H-indazole-5-yl)-1-(4-(1-methylpiperidine-4-yl)piperazine-1-yl)-1-oxopropan-2-yl)-4-(6-oxo-3,4,5,6-tetrahydro-2H-thiopyrano[3,2-b]pyridine-7-yl)piperidine-1-formamide], at CGRP receptor complex, the IC50 amounted to 16.9 nM.

With `[2H]C1([2H])SCc2cc(C3CCN(C(=O)N[C@H](Cc4cc(C)c5[nH]ncc5c4)C(=O)N4CCN(C5CCN(C)CC5)CC4)CC3)c(=O)[nH]c21` [Example 14, (R)-N-(3-(7-methyl-1H-indazole-5-yl)-1-(4-(1-methylpiperidine-4-yl)piperazine-1-yl)-1-oxopropan-2-yl)-4-(2-oxo-1,2,5,7-tetrahydrothieno[3,4-b]pyridine-3-yl-7,7-d2)piperidine-1-formamide], the IC50 on CGRP receptor complex was 6.85 nM.

For the compound `Cc1cc(C[C@@H](NC(=O)N2CCC(c3cc4c([nH]c3=O)SCC=C4)CC2)C(=O)N2CCN(C3CCN(C)CC3)CC2)cc2cn[nH]c12` [Example 48, (R)-N-(3-(7-methyl-1H-indazole-5-yl)-1-(4-(1-methylpiperidine-4-yl)piperazine-1-yl)-1-oxopropan-2-yl)-4-(7-oxo-7,8-dihydro-2H-thiopyrano[2,3-b]pyridine-6-yl)piperidine-1-formamide], the IC50 at CGRP receptor complex was found to be 0.15 nM.

With `Cc1cc(C[C@@H](NC(=O)N2CCC(c3cc4c([nH]c3=O)CCSC4)CC2)C(=O)N2CCN(C3CCN(C)CC3)CC2)cc2cn[nH]c12` [Example 15, (R)-N-(3-(7-methyl-1H-indazole-5-yl)-1-(4-(1-methylpiperidine-4-yl)piperazine-1-yl)-1-oxopropan-2-yl)-4-(2-oxo-1,5,7,8-tetrahydro-2H-thiopyrano[4,3-b]pyridine-3-yl)piperidine-1-formamide], the IC50 at CGRP receptor complex is 10.1 nM.

With `Cc1cc(C[C@@H](NC(=O)C2CCN(c3cc4c([nH]c3=O)SCCC4)CC2)C(=O)N2CCN(C3CCN(C)CC3)CC2)cc2cn[nH]c12` [Example 21, (R)-N-(3-(7-methyl-1H-indazole-5-yl)-1-(4-(1-methylpiperidine-4-yl)piperazine-1-yl)-1-oxopropan-2-yl)-1-(7-oxo-3,4,7,8-tetrahydro-2H-thiopyrano[2,3-b]pyridine-6-yl)piperidine-4-formamide], the IC50 at CGRP receptor complex came to 590 nM.

Regarding `Cc1cc(C[C@@H](NC(=O)N2CCC(c3cc4c([nH]c3=O)SCCC4)CC2)C(=O)N2CCC(N3CCN(C)CC3)CC2)cc2cn[nH]c12` [Example 25, (R)-N-(3-(7-methyl-1H-indazole-5-yl)-1-(4-(4-methylpiperazine-1-yl)piperidine-1-yl)-1-oxopropan-2-yl)-4-(7-oxo-3,4,7,8-tetrahydro-2H-thiopyrano[2,3-b]pyridine-6-yl)piperidine-1-formamide], the IC50 on CGRP receptor complex was 0.79 nM.
